Experimental data as given in ChEMBL document CHEMBL1909046, “DrugMatrix in vitro pharmacology data”.

Experiments:
[1] = molecular target: T1, Amine oxidase [flavin-containing] A (Homo sapiens, UniProt P21397); experiment: DRUGMATRIX: Monoamine Oxidase MAO-A enzyme inhibition (substrate: Kynuramine); set-up: species or system BTI-TN-5B1-4; conditions: Not Active = under 50% inhibition at 10 µM
T1 sequence (P21397 whole entry): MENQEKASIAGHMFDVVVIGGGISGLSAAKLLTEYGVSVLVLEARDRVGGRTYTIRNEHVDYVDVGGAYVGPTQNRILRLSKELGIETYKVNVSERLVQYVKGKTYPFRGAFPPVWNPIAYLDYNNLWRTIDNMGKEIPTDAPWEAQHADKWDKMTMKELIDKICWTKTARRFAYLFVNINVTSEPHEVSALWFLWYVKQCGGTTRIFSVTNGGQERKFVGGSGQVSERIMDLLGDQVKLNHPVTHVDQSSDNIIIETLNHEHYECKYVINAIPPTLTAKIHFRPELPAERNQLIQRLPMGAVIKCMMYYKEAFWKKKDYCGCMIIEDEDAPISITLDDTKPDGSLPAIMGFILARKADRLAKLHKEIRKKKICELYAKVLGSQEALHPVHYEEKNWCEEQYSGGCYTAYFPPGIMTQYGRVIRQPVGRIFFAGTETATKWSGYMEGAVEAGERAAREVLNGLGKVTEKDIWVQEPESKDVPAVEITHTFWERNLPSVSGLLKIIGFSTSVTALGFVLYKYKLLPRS

[2] = DRUGMATRIX: Phosphodiesterase PDE4 enzyme inhibition (substrate: [3H]cAMP + cAMP); conditions: u-937; Not Active = under 50% inhibition at 10 µM
[3] = molecular target: 5-hydroxytryptamine receptor 1B (Rattus norvegicus, UniProt P28564); type: cell membranes, Wistar, Cerebral cortex, Membrane; note: in other assays of this panel Not Active means under 50% inhibition at 10 µM
[4] = molecular target: T2, 5-hydroxytryptamine receptor 1A (Rattus norvegicus, UniProt P19327); type: cell membranes, CHO-K1, Membrane; note: in other assays of this panel Not Active means under 50% inhibition at 10 µM
T2 sequence (P19327 whole entry): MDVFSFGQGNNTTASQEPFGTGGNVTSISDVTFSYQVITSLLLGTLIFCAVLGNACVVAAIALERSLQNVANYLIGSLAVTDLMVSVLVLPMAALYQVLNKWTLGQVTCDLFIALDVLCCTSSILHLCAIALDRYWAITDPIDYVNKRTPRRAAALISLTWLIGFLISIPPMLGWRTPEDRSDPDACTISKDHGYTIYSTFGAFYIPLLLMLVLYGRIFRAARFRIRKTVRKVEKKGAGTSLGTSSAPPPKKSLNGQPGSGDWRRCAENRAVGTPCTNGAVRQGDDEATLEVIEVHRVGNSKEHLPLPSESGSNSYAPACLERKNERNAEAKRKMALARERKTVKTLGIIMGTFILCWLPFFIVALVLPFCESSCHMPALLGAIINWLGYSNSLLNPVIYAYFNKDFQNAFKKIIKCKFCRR

[5] = molecular target: Substance-P receptor (Homo sapiens, UniProt P25103); type: cell membranes, CHO, Membrane; conditions: cho; note: in other assays of this panel Not Active means under 50% inhibition at 10 µM
[6] = molecular target: T3, Receptor-type tyrosine-protein phosphatase C (Homo sapiens, UniProt P08575); set-up: species or system Escherichia coli;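 note: inhibition of CD45 enzyme activity measured using DiFMUP as substrate; in other assays of this panel Not Active means under 50% inhibition at 10 µM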
T3 sequence (P08575 whole entry): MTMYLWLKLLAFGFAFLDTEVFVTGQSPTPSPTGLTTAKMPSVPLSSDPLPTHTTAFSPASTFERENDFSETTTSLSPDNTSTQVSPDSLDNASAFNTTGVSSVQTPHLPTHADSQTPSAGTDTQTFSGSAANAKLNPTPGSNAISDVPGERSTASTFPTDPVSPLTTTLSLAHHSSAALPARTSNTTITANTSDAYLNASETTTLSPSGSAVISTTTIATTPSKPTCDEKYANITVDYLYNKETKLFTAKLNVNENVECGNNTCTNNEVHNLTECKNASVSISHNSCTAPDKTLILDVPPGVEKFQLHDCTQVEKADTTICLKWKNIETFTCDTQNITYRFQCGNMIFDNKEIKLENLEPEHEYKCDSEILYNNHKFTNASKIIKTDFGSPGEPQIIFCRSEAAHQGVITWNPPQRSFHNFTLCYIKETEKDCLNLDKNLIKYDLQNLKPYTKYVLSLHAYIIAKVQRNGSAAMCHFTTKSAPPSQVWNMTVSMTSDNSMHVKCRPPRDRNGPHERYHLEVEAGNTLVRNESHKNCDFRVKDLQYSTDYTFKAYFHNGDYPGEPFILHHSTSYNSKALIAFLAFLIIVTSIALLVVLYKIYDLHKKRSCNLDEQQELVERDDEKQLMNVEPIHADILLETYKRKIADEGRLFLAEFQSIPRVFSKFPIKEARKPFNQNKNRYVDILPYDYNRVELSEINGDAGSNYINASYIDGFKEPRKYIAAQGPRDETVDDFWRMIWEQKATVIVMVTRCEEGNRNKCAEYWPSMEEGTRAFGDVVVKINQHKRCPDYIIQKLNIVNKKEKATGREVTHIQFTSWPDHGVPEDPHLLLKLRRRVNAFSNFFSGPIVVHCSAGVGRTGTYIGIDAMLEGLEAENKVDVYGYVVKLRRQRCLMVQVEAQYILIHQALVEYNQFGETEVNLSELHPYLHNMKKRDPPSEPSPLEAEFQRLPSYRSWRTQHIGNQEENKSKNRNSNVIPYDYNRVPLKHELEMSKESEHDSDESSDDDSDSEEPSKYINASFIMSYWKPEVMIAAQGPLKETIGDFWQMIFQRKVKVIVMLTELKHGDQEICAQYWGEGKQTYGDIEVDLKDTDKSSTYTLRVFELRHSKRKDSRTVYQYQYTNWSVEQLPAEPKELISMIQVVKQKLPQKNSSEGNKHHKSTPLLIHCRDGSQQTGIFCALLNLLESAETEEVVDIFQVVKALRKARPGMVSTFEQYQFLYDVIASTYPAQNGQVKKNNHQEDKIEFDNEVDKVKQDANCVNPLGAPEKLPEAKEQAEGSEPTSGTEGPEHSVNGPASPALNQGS

Substance-P receptor, sequence (P25103 whole entry): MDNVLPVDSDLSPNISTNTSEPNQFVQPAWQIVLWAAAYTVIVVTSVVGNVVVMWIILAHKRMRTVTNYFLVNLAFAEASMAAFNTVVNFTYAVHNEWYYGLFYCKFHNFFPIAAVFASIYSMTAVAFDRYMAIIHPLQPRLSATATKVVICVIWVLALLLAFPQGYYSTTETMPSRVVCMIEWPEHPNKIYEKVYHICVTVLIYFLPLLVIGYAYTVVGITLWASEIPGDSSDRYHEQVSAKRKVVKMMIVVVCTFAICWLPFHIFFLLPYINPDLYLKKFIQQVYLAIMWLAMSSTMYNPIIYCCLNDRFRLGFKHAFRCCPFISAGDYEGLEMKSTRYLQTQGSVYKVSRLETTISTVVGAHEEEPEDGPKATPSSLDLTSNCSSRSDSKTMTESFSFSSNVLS
5-hydroxytryptamine receptor 1B, sequence (P28564 whole entry): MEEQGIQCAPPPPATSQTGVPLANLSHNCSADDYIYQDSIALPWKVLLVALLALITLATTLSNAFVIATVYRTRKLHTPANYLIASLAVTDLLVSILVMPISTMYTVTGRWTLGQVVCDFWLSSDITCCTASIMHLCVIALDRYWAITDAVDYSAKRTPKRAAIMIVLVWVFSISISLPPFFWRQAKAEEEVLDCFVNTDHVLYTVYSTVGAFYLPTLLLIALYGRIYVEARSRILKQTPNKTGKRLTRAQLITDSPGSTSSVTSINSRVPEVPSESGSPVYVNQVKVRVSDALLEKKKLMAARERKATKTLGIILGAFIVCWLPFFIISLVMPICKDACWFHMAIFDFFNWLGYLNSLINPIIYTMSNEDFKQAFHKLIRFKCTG

SMILES	IC50 ([1]; bti-tn-5b1-4)	IC50 [2]	Ki [2]	IC50 [3]	IC50 ([4]; cho-k1)	IC50 [5]	IC50 [6]	IC50 ([1]; read-out: IC50) [nM]	Ki [6]	IC50 ([3]; read-out: IC50) [nM]	Ki ([3]; read-out: Ki) [nM]	IC50 ([4]; read-out: IC50) [nM]	Ki ([4]; read-out: Ki) [nM]
CO/N=C(\C(=O)N[C@@H]1C(=O)N2C(C(=O)O)=C(COC(C)=O)CS[C@H]12)c1csc(N)n1 [CEFOTAXIME]	Not Active	Not Active	Not Active	Not Active	Not Active	Not Active	Not Active	–	–	–	–	–	–
CNC1=Nc2ccc(Cl)cc2C(c2ccccc2)=[N+]([O-])C1 [CHLORDIAZEPOXIDE]	Not Active	Not Active	Not Active	Not Active	Not Active	Not Active	Not Active	–	–	–	–	–	–
Cc1cc(O)cc(C)c1Cl [CHLOROXYLENOL]	–	Not Active	Not Active	Not Active	Not Active	Not Active	Not Active	1830	–	–	–	–	–
CCCNC(=O)NS(=O)(=O)c1ccc(Cl)cc1 [CHLORPROPAMIDE]	Not Active	Not Active	Not Active	Not Active	Not Active	Not Active	Not Active	–	–	–	–	–	–
NS(=O)(=O)c1cc(C2(O)NC(=O)c3ccccc32)ccc1Cl (stereo not drawn) [CHLORTHALIDONE]	Not Active	Not Active	Not Active	Not Active	Not Active	Not Active	Not Active	–	–	–	–	–	–
O=C(O)CC(O)(CC(=O)O)C(=O)O [CITRIC ACID]	Not Active	Not Active	Not Active	Not Active	Not Active	Not Active	Not Active	–	–	–	–	–	–
CC(C)NCC(O)c1ccccc1Cl (stereo not drawn) [CLORPRENALINE]	Not Active	Not Active	Not Active	Not Active	Not Active	Not Active	Not Active	–	–	–	–	–	–
CN1CCN(C(c2ccccc2)c2ccccc2)CC1 [CYCLIZINE]	Not Active	Not Active	Not Active	Not Active	Not Active	Not Active	Not Active	–	–	–	–	–	–
CN1C[C@@H]2C[C@H]1CN2c1cc2c(cc1F)c(=O)c(C(=O)O)cn2C1CC1 [DANOFLOXACIN]	Not Active	Not Active	Not Active	Not Active	Not Active	Not Active	Not Active	–	–	–	–	–	–
COc1cccc2c1C(=O)c1c(O)c3c(c(O)c1C2=O)C[C@@](O)(C(C)=O)C[C@@H]3O[C@H]1C[C@H](N)[C@H](O)[C@H](C)O1 [DAUNORUBICIN]	Not Active	Not Active	Not Active	Not Active	Not Active	Not Active	Not Active	–	–	–	–	–	–
O=C(O)c1cc(-c2ccc(F)cc2F)ccc1O [DIFLUNISAL]	Not Active	Not Active	Not Active	Not Active	Not Active	Not Active	Not Active	–	–	–	–	–	–
C[S+](C)[O-] [DIMETHYL SULFOXIDE]	Not Active	Not Active	Not Active	Not Active	Not Active	Not Active	–	–	Not Active	–	–	–	–
CC1=NN(c2ccccc2)C(=O)C1 [EDARAVONE]	Not Active	Not Active	Not Active	Not Active	Not Active	Not Active	Not Active	–	–	–	–	–	–
CC(C)C[C@H]1C(=O)N2CCC[C@H]2[C@]2(O)O[C@](NC(=O)[C@@H]3C=C4c5cccc6[nH]cc(c56)C[C@H]4N(C)C3)(C(C)C)C(=O)N12 [ERGOCRYPTINE]	Not Active	Not Active	Not Active	–	–	Not Active	Not Active	–	–	8.2	5.02	2.63	1.5
C[C@]12CC[C@@H]3c4ccc(O)cc4CC[C@H]3[C@@H]1C[C@@H](O)[C@@H]2O [ESTRIOL]	Not Active	Not Active	Not Active	Not Active	Not Active	Not Active	Not Active	–	–	–	–	–	–
C#C[C@]1(O)CC[C@H]2[C@@H]3CCC4=CC(=O)CC[C@]4(C)[C@H]3CC[C@@]21C [ETHISTERONE]	Not Active	Not Active	Not Active	Not Active	Not Active	Not Active	Not Active	–	–	–	–	–	–
CC(O)(P(=O)(O)O)P(=O)(O)O [ETIDRONIC ACID]	Not Active	Not Active	Not Active	Not Active	Not Active	Not Active	Not Active	–	–	–	–	–	–
CC(C)(C(=O)O)c1ccc(C(O)CCCN2CCC(C(O)(c3ccccc3)c3ccccc3)CC2)cc1 (stereo not drawn) [FEXOFENADINE]	Not Active	Not Active	Not Active	Not Active	Not Active	Not Active	Not Active	–	–	–	–	–	–
CN1CCN(c2c(F)cc3c(=O)c(C(=O)O)cn(CCF)c3c2F)CC1 [FLEROXACIN]	Not Active	Not Active	Not Active	Not Active	Not Active	Not Active	Not Active	–	–	–	–	–	–
O=c1[nH]c(=O)n([C@H]2C[C@H](O)[C@@H](CO)O2)cc1F [FLOXURIDINE]	Not Active	Not Active	Not Active	Not Active	Not Active	Not Active	Not Active	–	–	–	–	–	–
COC(=O)Nc1nc2cc(C(=O)c3ccc(F)cc3)ccc2[nH]1 [FLUBENDAZOLE]	Not Active	Not Active	Not Active	Not Active	Not Active	Not Active	Not Active	–	–	–	–	–	–
CC(=O)OCC(=O)[C@@]1(O)CC[C@H]2[C@@H]3CCC4=CC(=O)CC[C@]4(C)[C@@]3(F)[C@@H](O)C[C@@]21C [FLUDROCORTISONE ACETATE]	Not Active	Not Active	Not Active	Not Active	Not Active	Not Active	Not Active	–	–	–	–	–	–
CCOC(=O)c1ncn2c1CN(C)C(=O)c1cc(F)ccc1-2 [FLUMAZENIL]	Not Active	Not Active	Not Active	Not Active	Not Active	Not Active	Not Active	–	–	–	–	–	–
